Data taken from US8431715B2, “Thiazole compound (as PPARδ) ligand and pharmaceutical, cosmetic and health food comprised thereof” (Seoul National University Industry Foundation, priority 2007, dated 2013).
Read-outs that look alike come from different tables or passages of the source. One block for each compound: values may come before it.

Key:
[1] = system: C57BL/6 mice; experiment: Obesity inhibitory effect, high-fat feed; format: in vivo; settings: 10 mg/Kg/day oral, 35% fat feed for 35 days; vehicle 58.9%
Protocol: An animal test using mice was performed to confirm the in vivo effect of the compound of the present invention. C57BL/6 (SLC Co.) mice at 14 weeks were used. To induce obesity, feeds containing 35% fat were given.

[2] = system: mice; experiment: GTT (glucose tolerance test), diabetes improving effect; format: in vivo; settings: glucose 1.5 g/Kg intra-abdominal, oral pre-treatment 78 days
Protocol: GTT (glucose tolerance test) was performed to confirm the diabetes improving effect of the compound of the present invention. Glucose (1.5 g/Kg) was intra-abdominally administered to the mice pre-treated orally with samples for 78 days. Blood glucose was measured every hour. Fasting blood glucose was lower in the group treated with the compound of the present invention than in the group treated with vehicle or GW501516.

[3] = system: C57BL/6 mice; experiment: Hyperlipidemia improving effect, blood HDL level; format: in vivo; settings: 10 mg/kg/day oral, high fat feeds, 6 weeks, serum
Protocol: In vivo animal test using C57BL/6 (SLC Co.) mice at 6 weeks was performed to confirm the hyperlipidemia improving effect of the compound of the present invention. […] 6 weeks later, blood was taken from orbital veins. Serum was separated and blood HDL level was measured by biochemical method.

[4] = molecular target: T1, PPARδ (Homo sapiens, UniProt Q03181); settings: literature; cited from earlier work
T1 sequence (Q03181 1-441): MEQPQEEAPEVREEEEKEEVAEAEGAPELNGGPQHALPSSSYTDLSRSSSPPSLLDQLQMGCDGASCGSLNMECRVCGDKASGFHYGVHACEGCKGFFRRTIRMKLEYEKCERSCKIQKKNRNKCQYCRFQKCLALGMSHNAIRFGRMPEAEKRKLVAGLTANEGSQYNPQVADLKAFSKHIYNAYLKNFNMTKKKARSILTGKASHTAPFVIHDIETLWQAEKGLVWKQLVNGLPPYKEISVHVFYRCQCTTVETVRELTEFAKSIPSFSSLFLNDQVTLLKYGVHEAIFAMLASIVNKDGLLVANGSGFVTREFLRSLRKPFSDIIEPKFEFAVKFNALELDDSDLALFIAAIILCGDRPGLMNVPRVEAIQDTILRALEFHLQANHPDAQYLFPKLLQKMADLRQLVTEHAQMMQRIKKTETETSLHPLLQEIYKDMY

[5] = system: CV-1 cells; experiment: MTT assay, cytotoxicity; format: cell-based; settings: 24 hours, even at the concentration of 100,000 times the EC50 value
Protocol: MTT assay was performed to test cytotoxicity of the compounds of the present invention. MTT is a yellow substance soluble in water, but when it is introduced into a living cell, it turns into a purple insoluble crystal by dehydrogenase in mitochondria. Cytotoxicity can be confirmed by measuring OD550 after dissolving MTT in dimethylsulfoxide. The experiment was performed as follows.
CV-1 cells were inoculated in a 96-well plate (5000 cells/well). The cells were cultured in a 37[…] 5% CO2 incubator for 24 hours, and treated with the compounds of formula 1 and formula 2 at different concentrations. Then, the cells were cultured for 24 hours again, to which MTT reagent was added. After culturing for 15 minutes, the generated purple crystals were dissolved in dimethylsulfoxide. Optical density was measured with a microplate reader to confirm cytotoxicity.

[6] = molecular target: T2, PPARα (Homo sapiens, UniProt Q07869); experiment: Transfection assay (luciferase reporter) in CV-1 cells, PPARα; format: cell-based; settings: 24 hours treatment
T2 construct: Full length PPARs plasmid DNA, reporter DNA confirming PPARs activity owing to its luciferase activity; expressed in transfected cells; host or cells: CV-1 cells
T2 sequence (Q07869 1-468): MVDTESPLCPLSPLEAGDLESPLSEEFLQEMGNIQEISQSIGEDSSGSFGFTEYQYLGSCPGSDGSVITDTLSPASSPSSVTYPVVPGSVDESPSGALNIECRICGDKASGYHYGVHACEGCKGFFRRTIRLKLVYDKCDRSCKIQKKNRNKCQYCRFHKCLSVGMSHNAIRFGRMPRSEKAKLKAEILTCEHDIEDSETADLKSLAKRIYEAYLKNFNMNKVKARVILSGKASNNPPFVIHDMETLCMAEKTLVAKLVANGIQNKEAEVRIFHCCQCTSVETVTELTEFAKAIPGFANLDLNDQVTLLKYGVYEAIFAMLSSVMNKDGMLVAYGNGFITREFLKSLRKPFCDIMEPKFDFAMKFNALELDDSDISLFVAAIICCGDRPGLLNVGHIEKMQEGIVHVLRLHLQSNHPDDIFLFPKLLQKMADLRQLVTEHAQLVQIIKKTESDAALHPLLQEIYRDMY
Protocol: (§1) The PPARδ activities of the R-form compound represented by formula 1 of the present invention and the S-form compound represented by formula 2 were measured by transfection assay. In addition, the selectivity to PPAR subtypes, PPARα and PPARγ, was examined. Cytotoxicity was tested by MTT assay and in vivo activity and toxicity was investigated by animal experiment using mice.
(§2) CV-1 cells were used in this assay. The cells were inoculated in a 96-well plate containing DMEM supplemented with 10% FBS, DBS (delipidated) and 1% penicillin/streptomycin and cultured in a 37 °C, 5% CO2 incubator. The experiment was performed according to the steps of inoculation, transfection, sample treatment and confirmation. Particularly, CV-1 cells were inoculated in a 96 well-plate (5000 cells/well), followed by transfection 24 hours later. Full length PPARs plasmid DNA, reporter DNA confirming PPARs activity owing to its luciferase activity, β-galactosidase DNA providing information on transfection efficiency, and transfection reagent were used for the transfection. The compounds of formula 1 and formula 2 were dissolved in dimethylsulfoxide (DMSO), which were treated to the cells via media at different concentrations. […] Luciferase activity and β-galactosidaseactivity were measured with Luminometer and a microplate reader. […] A graph was made with those values and EC50 was calculated.

[7] = molecular target: T1, PPARδ; experiment: Transfection assay (luciferase reporter) in CV-1 cells, PPARδ; format: cell-based; design: Full length PPARs plasmid DNA, reporter DNA confirming PPARs activity owing to its luciferase activity; expressed in transfected cells; host or cells: CV-1 cells; settings: CV-1 cells, 24 hours treatment
Protocol: as §1
CV-1 cells were used in this assay. The cells were inoculated in a 96-well plate containing DMEM supplemented with 10% FBS, DBS (delipidated) and 1% penicillin/streptomycin and cultured in a 37 °C, 5% CO2 incubator. The experiment was performed according to the steps of inoculation, transfection, sample treatment and confirmation. Particularly, CV-1 cells were inoculated in a 96 well-plate (5000 cells/well), followed by transfection 24 hours later. Full length PPARs plasmid DNA, reporter DNA confirming PPARs activity owing to its luciferase activity, β-galactosidase DNA providing information on transfection efficiency, and transfection reagent were used for the transfection. The compounds of formula 1 and formula 2 were dissolved in dimethylsulfoxide (DMSO), which were treated to the cells via media at different concentrations. After culturing the cells in the incubator for 24 hours, the cells were lysed by using lysis buffer. Luciferase activity and β-galactosidaseactivity were measured with Luminometer and a microplate reader. The obtained values of luciferase were modified by the values of β-galactosidase. A graph was made with those values and EC50 was calculated.

[8] = molecular target: T3, PPARγ (Homo sapiens, UniProt P37231); experiment: Transfection assay (luciferase reporter) in CV-1 cells, PPARγ; format: cell-based; settings: 24 hours treatment
T3 construct: Full length PPARs plasmid DNA, reporter DNA confirming PPARs activity owing to its luciferase activity; expressed in transfected cells; host or cells: CV-1 cells
T3 sequence (P37231 1-505): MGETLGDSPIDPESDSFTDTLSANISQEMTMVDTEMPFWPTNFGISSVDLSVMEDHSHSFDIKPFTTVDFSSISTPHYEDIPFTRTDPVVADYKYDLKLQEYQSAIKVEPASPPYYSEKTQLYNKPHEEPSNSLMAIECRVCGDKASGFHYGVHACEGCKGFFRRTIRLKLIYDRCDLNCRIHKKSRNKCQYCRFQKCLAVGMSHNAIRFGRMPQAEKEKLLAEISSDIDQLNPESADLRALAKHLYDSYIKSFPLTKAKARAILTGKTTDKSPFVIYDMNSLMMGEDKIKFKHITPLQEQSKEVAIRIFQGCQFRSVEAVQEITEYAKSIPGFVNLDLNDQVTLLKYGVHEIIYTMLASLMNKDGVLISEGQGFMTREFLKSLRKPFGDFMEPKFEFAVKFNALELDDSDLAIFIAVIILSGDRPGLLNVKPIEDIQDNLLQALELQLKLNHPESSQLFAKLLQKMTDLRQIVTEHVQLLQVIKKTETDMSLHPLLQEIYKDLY
Protocol: as §1, §2

SMILES: Cc1cc(SCc2sc(-c3ccc(C(F)(F)F)cc3)nc2C)ccc1OCC(=O)O [GW501516, [2-methyl-4-[[[4-methyl-2-[4-(trifluoromethyl)phenyl]-1,3-thiazol-5-yl]methyl]sulfanyl]phenoxy]acetic acid, reference compound]
weight increase [1]: 26.5%
blood glucose compared with vehicle [2]: lower blood glucose than the vehicle treated group
recovery of blood glucose level to normal [2]: not recovered to normal
HDL level increase compared with the control [3]: 36.3%

SMILES: CCCc1c(OCCCOc2ccc(OCC(=O)O)cc2)ccc(C(C)=O)c1O [L-165041]
EC50 [4]: 530 nM
selectivity to hPPARδ over PPARα or PPARγ [4]: 10 times

EC50 PPARα [6]: ia
EC50 [7]: 5.1 nM
EC50 PPARγ [8]: ia
SMILES: Cc1cc(S[C@@H](Cc2ccccc2)c2sc(-c3ccc(C(F)(F)F)cc3)nc2C)ccc1OCC(=O)O [formula 2]
cytotoxicity [5]: not to have cytotoxicity
